From the NIST ThermoML archive (doi:10.1021/acs.jced.6b00536)

Assay: xn = mol fraction of the nth substance listed
Conditions: Gas, Frequency=0.05 MHz, Single path-length method, x2 = 0.058

FC(F)(F)C(F)(F)C(F)(F)F [octafluoropropane] + N#N
Conditions	speed of sound [m/s]
293.32 K, 0.09882 kPa	117.97
293.32 K, 0.119 kPa	117.53
293.32 K, 0.1196 kPa	117.53
293.32 K, 0.139 kPa	117.08
293.32 K, 0.1393 kPa	117.06
293.32 K, 0.1596 kPa	116.59
293.32 K, 0.1599 kPa	116.61
293.32 K, 0.1779 kPa	116.19
293.32 K, 0.1782 kPa	116.19
293.32 K, 0.1958 kPa	115.78
293.32 K, 0.1967 kPa	115.77
293.32 K, 0.207 kPa	115.54
293.32 K, 0.2174 kPa	115.26
293.32 K, 0.218 kPa	115.26
293.32 K, 0.2185 kPa	115.27
293.32 K, 0.2573 kPa	114.33
293.32 K, 0.2766 kPa	113.86
293.32 K, 0.2771 kPa	113.88
293.32 K, 0.2946 kPa	113.41
293.32 K, 0.2954 kPa	113.39
293.32 K, 0.3175 kPa	112.86
293.32 K, 0.3315 kPa	112.52
298.38 K, 0.1005 kPa	119.04
298.38 K, 0.121 kPa	118.61
298.38 K, 0.1413 kPa	118.17
298.38 K, 0.1627 kPa	117.7
298.38 K, 0.1814 kPa	117.31
298.38 K, 0.2001 kPa	116.91
298.38 K, 0.2106 kPa	116.69
298.38 K, 0.2213 kPa	116.42
298.38 K, 0.222 kPa	116.42
298.38 K, 0.262 kPa	115.52
298.38 K, 0.282 kPa	115.07
298.38 K, 0.3011 kPa	114.61
298.38 K, 0.3239 kPa	114.1
298.38 K, 0.338 kPa	113.78
303.42 K, 0.1021 kPa	120.1
303.42 K, 0.1231 kPa	119.68
303.42 K, 0.1437 kPa	119.25
303.42 K, 0.1656 kPa	118.81
303.42 K, 0.1845 kPa	118.41
303.42 K, 0.2036 kPa	118.03
303.42 K, 0.2142 kPa	117.81
303.42 K, 0.2253 kPa	117.56
303.42 K, 0.2258 kPa	117.55
303.42 K, 0.2668 kPa	116.7
303.42 K, 0.2873 kPa	116.26
303.42 K, 0.3067 kPa	115.81
303.42 K, 0.3302 kPa	115.32
303.42 K, 0.3443 kPa	114.98
308.47 K, 0.1038 kPa	121.14
308.47 K, 0.1251 kPa	120.73
308.47 K, 0.146 kPa	120.32
308.47 K, 0.1683 kPa	119.89
308.47 K, 0.1877 kPa	119.52
308.47 K, 0.207 kPa	119.14
308.47 K, 0.2178 kPa	118.93
308.47 K, 0.2293 kPa	118.7
308.47 K, 0.2297 kPa	118.68
308.47 K, 0.2717 kPa	117.84
308.47 K, 0.2924 kPa	117.42
308.47 K, 0.3124 kPa	116.99
308.47 K, 0.3365 kPa	116.51
308.47 K, 0.3509 kPa	116.21
313.51 K, 0.1052 kPa	122.18
313.51 K, 0.1271 kPa	121.79
313.51 K, 0.1483 kPa	121.39
313.51 K, 0.171 kPa	120.97
313.51 K, 0.1907 kPa	120.6
313.51 K, 0.2105 kPa	120.24
313.51 K, 0.2214 kPa	120.03
313.51 K, 0.2331 kPa	119.78
313.51 K, 0.2338 kPa	119.8
313.51 K, 0.2763 kPa	118.97
313.51 K, 0.2975 kPa	118.58
313.51 K, 0.318 kPa	118.15
313.51 K, 0.3428 kPa	117.7
313.51 K, 0.3574 kPa	117.4
318.52 K, 0.1068 kPa	123.2
318.52 K, 0.1291 kPa	122.82
318.52 K, 0.1506 kPa	122.42
318.52 K, 0.1737 kPa	122.03
318.52 K, 0.1939 kPa	121.67
318.52 K, 0.2139 kPa	121.32
318.52 K, 0.2251 kPa	121.12
318.52 K, 0.2374 kPa	120.89
318.52 K, 0.2377 kPa	120.89
318.52 K, 0.2812 kPa	120.11
318.52 K, 0.3027 kPa	119.71
318.52 K, 0.3235 kPa	119.3
318.52 K, 0.349 kPa	118.86
318.52 K, 0.3638 kPa	118.57
323.53 K, 0.1085 kPa	124.22
323.53 K, 0.1312 kPa	123.85
323.53 K, 0.1531 kPa	123.46
323.53 K, 0.1766 kPa	123.09
323.53 K, 0.197 kPa	122.74
323.53 K, 0.2175 kPa	122.4
323.53 K, 0.2288 kPa	122.2
323.53 K, 0.2413 kPa	121.97
323.53 K, 0.2416 kPa	121.98
323.53 K, 0.2859 kPa	121.21
323.53 K, 0.308 kPa	120.83
323.53 K, 0.3293 kPa	120.45
323.53 K, 0.3551 kPa	120.01
323.53 K, 0.3704 kPa	119.72
